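Tested at 5 concentrations; 48 h exposure; 96-well plates; endpoints linearly interpolated, else capped at highest concentration. TGI: total growth inhibition.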
How the values were obtained:
Assay in all cases: inhibition of tumour cell growth, NCI panel, 48 h
KM12 colon = test system: KM12 colon
786-0 renal = test system: 786-0 renal
NCI-H226 lung = test system: NCI-H226 lung
HOP-62 NSCLC = test system: HOP-62 NSCLC
RXF 393 renal = test system: RXF 393 renal
PC-3 prostate = test system: PC-3 prostate
MCF7 breast = test system: MCF7 breast
OVCAR-5 ovarian = test system: OVCAR-5 ovarian
NCI-H522 lung = test system: NCI-H522 lung
HL-60(TB) leukemia = test system: HL-60(TB) leukemia
HCT-15 colon = test system: HCT-15 colon
SK-MEL-28 melanoma = test system: SK-MEL-28 melanoma
MDA-N = test system: MDA-N
T-47D breast = test system: T-47D breast
EKVX NSCLC = test system: EKVX NSCLC
HT29 colon = test system: HT29 colon
BT-549 breast = test system: BT-549 breast
UO-31 renal = test system: UO-31 renal
SF-295 CNS = test system: SF-295 CNS
HCT-116 colon = test system: HCT-116 colon
U251 CNS = test system: U251 CNS
OVCAR-4 ovarian = test system: OVCAR-4 ovarian
HOP-92 NSCLC = test system: HOP-92 NSCLC
OVCAR-8 ovarian = test system: OVCAR-8 ovarian
A498 renal = test system: A498 renal
NCI/ADR-RES ovarian = test system: NCI/ADR-RES ovarian
MDA-MB-435 = test system: MDA-MB-435
CCRF-CEM leukemia = test system: CCRF-CEM leukemia
M14 melanoma = test system: M14 melanoma
NCI-H23 lung = test system: NCI-H23 lung
A549 NSCLC = test system: A549 NSCLC
SNB-19 CNS = test system: SNB-19 CNS
SN12C renal = test system: SN12C renal
MDA-MB-231 breast = test system: MDA-MB-231 breast
HS 578T breast = test system: HS 578T breast
SK-MEL-5 melanoma = test system: SK-MEL-5 melanoma
DU-145 prostate = test system: DU-145 prostate
NCI-H460 lung = test system: NCI-H460 lung
ACHN renal = test system: ACHN renal
UACC-257 melanoma = test system: UACC-257 melanoma
CAKI-1 renal = test system: CAKI-1 renal
MOLT-4 leukemia = test system: MOLT-4 leukemia
UACC-62 melanoma = test system: UACC-62 melanoma
COLO 205 colon = test system: COLO 205 colon
K-562 leukemia = test system: K-562 leukemia
LOX IMVI melanoma = test system: LOX IMVI melanoma
SF-268 CNS = test system: SF-268 CNS
MALME-3M melanoma = test system: MALME-3M melanoma
SNB-75 CNS = test system: SNB-75 CNS
OVCAR-3 ovarian = test system: OVCAR-3 ovarian
RPMI-8226 leukemia = test system: RPMI-8226 leukemia
IGROV1 ovarian = test system: IGROV1 ovarian
HCC-2998 colon = test system: HCC-2998 colon
TK-10 renal = test system: TK-10 renal
SK-OV-3 ovarian = test system: SK-OV-3 ovarian
SW-620 colon = test system: SW-620 colon

Q: How did the TGI (KM12 colon) turn out when `CC(=O)Nc1ccc2c(c1)/C(=C\c1ccc([N+](C)(C)C)cc1)c1ccccc1-2` was run?
A: The TGI was > 100 µM.

Q: What about the TGI (786-0 renal) of the same molecule?
A: The TGI was > 100 µM.

Q: And the TGI (NCI-H226 lung)?
A: The TGI was 74.4 µM.

Q: What about the TGI (HOP-62 NSCLC) of the same molecule?
A: Its TGI is > 100 µM.

Q: And the TGI (RXF 393 renal)?
A: The TGI was > 100 µM.

Q: What about the TGI (PC-3 prostate) of the same molecule?
A: The TGI was > 100 µM.

Q: And the TGI (MCF7 breast)?
A: The TGI was > 100 µM.

Q: What about the TGI (OVCAR-5 ovarian) of the same molecule?
A: Its TGI is 80.4 µM.

Q: And the TGI (NCI-H522 lung)?
A: The TGI was > 100 µM.

Q: And the TGI (HL-60(TB) leukemia)?
A: The TGI was 59.5 µM.

Q: What about the TGI (HCT-15 colon) of the same molecule?
A: Its TGI is > 100 µM.

Q: What about the TGI (SK-MEL-28 melanoma) of the same molecule?
A: The TGI was > 100 µM.

Q: What about the TGI (MDA-N) of the same molecule?
A: Its TGI is > 100 µM.

Q: What about the TGI (T-47D breast) of the same molecule?
A: Its TGI is 90.1 µM.

Q: And the TGI (EKVX NSCLC)?
A: Its TGI is 78.6 µM.

Q: And the TGI (HT29 colon)?
A: The TGI was > 100 µM.

Q: What about the TGI (BT-549 breast) of the same molecule?
A: The TGI was > 100 µM.

Q: What about the TGI (UO-31 renal) of the same molecule?
A: The TGI was > 100 µM.

Q: And the TGI (SF-295 CNS)?
A: Its TGI is > 100 µM.

Q: What about the TGI (HCT-116 colon) of the same molecule?
A: The TGI was > 100 µM.

Q: And the TGI (U251 CNS)?
A: The TGI was > 100 µM.

Q: What about the TGI (OVCAR-4 ovarian) of the same molecule?
A: Its TGI is > 100 µM.

Q: What about the TGI (HOP-92 NSCLC) of the same molecule?
A: Its TGI is 79.9 µM.

Q: What about the TGI (OVCAR-8 ovarian) of the same molecule?
A: Its TGI is > 100 µM.

Q: What about the TGI (A498 renal) of the same molecule?
A: The TGI was > 100 µM.

Q: What about the TGI (NCI/ADR-RES ovarian) of the same molecule?
A: The TGI was > 100 µM.

Q: And the TGI (MDA-MB-435)?
A: The TGI was > 100 µM.

Q: And the TGI (CCRF-CEM leukemia)?
A: The TGI was 50.9 µM.

Q: What about the TGI (M14 melanoma) of the same molecule?
A: Its TGI is 33.8 µM.

Q: And the TGI (NCI-H23 lung)?
A: The TGI was > 100 µM.

Q: What about the TGI (A549 NSCLC) of the same molecule?
A: Its TGI is > 100 µM.

Q: And the TGI (SNB-19 CNS)?
A: Its TGI is > 100 µM.

Q: What about the TGI (SN12C renal) of the same molecule?
A: Its TGI is > 100 µM.

Q: What about the TGI (MDA-MB-231 breast) of the same molecule?
A: Its TGI is > 100 µM.

Q: And the TGI (HS 578T breast)?
A: The TGI was 88.3 µM.

Q: What about the TGI (SK-MEL-5 melanoma) of the same molecule?
A: Its TGI is 61.8 µM.

Q: And the TGI (DU-145 prostate)?
A: Its TGI is > 100 µM.

Q: What about the TGI (NCI-H460 lung) of the same molecule?
A: The TGI was > 100 µM.

Q: And the TGI (ACHN renal)?
A: Its TGI is > 100 µM.

Q: What about the TGI (UACC-257 melanoma) of the same molecule?
A: The TGI was 79.1 µM.

Q: What about the TGI (CAKI-1 renal) of the same molecule?
A: Its TGI is > 100 µM.

Q: And the TGI (MOLT-4 leukemia)?
A: The TGI was > 100 µM.

Q: What about the TGI (UACC-62 melanoma) of the same molecule?
A: Its TGI is > 100 µM.

Q: And the TGI (COLO 205 colon)?
A: Its TGI is 35.6 µM.

Q: And the TGI (K-562 leukemia)?
A: The TGI was > 100 µM.

Q: And the TGI (LOX IMVI melanoma)?
A: Its TGI is > 100 µM.

Q: And the TGI (SF-268 CNS)?
A: Its TGI is > 100 µM.

Q: What about the TGI (MALME-3M melanoma) of the same molecule?
A: Its TGI is > 100 µM.

Q: What about the TGI (SNB-75 CNS) of the same molecule?
A: Its TGI is > 100 µM.

Q: And the TGI (OVCAR-3 ovarian)?
A: Its TGI is > 100 µM.

Q: What about the TGI (RPMI-8226 leukemia) of the same molecule?
A: The TGI was 91.3 µM.

Q: What about the TGI (IGROV1 ovarian) of the same molecule?
A: Its TGI is > 100 µM.

Q: And the TGI (HCC-2998 colon)?
A: Its TGI is > 100 µM.

Q: What about the TGI (TK-10 renal) of the same molecule?
A: Its TGI is > 100 µM.

Q: And the TGI (SK-OV-3 ovarian)?
A: Its TGI is > 100 µM.

Q: And the TGI (SW-620 colon)?
A: Its TGI is > 100 µM.

Reference: PubChem BioAssay (NCI)
